Test results reported in US20130165368A1, “ANTIMICROBIAL COMPOUNDS” (priority 2010, published 2013).
In brackets after ≈: the same amount, converted by molar mass. Like-named read-outs stand apart in the source and are kept apart here.

Tests used:
Format in all cases: cell-based
[1] = test system: Staphylococcus aureus (MRSA); test: MIC agar dilution, micro-organism 12 (11939); settings: Staphylococcus aureus, MRSA, Staphylococcus aureus (MRSA) 11939, read-out: MIC
Summary of the method: (§1)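 Agar dilution in Isosensitest/CCEY agar with egg yolk and lysed horse blood; compounds as aqueous emulsions (myristyl and lauryl alcohol with 1-methyl-2-pyrrolidone and Tween 20). 1 µL spots of 1/15-diluted 0.5 McFarland suspensions, 37 °C aerobic, read at 22 and 48 h; MIC (mmol/L) is lowest concentration giving <10 colonies.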

[2] = test system: Staphylococcus aureus; test: MIC agar dilution, micro-organism 13 (6571); settings: Staphylococcus aureus, Staphylococcus aureus 6571, read-out: MIC
Summary of the method: as §1

[3] = test system: Enterococcus faecium (VRE) 255693 N. Tyneside; test: MIC agar dilution, VRE strain 22
Protocol: (§2) Molar equivalent concentrations were used to allow comparison between compounds of differing molecular mass. Due to weighing difficulties, any compound in solid form was melted in a water bath prior to dilution. To make ten-times strength concentrations, which takes into account agar dilution, 0.0352 mmol of each compound was weighed into plastic universal bottles and 4 mL of sterile distilled water (SDW) was added. To produce a homogenous emulsion the universals were vortexed; once achieved the emulsions were serial diluted by adding 2 mL to 2 mL of SDW.
(§3) For every 100 mL of Isosensitest agar (IST) (CM0471; Oxoid, Basingstoke, England), 3.1 g of the IST powder was added to 100 mL SDW (as per manufacturer's instructions) and sterilised for 15 minutes at 121° C. Once sterilised, the molten agar was cooled to 50° C. in a water-bath. Subsequently 4.8 g of CCEY powder (BC2160; Bioconnections, Wetherby, England), also known as Brazier's medium, was added to 100 mL SDW for every 100 mL of agar needed. This was then sterilised for 15 minutes at 121° C. Once sterilised the molten agar was cooled to 50° C. in a water-bath and 4 mL of egg-yolk emulsion (S2073; TCS Biosciences Ltd, Buckingham, United Kingdom) and 1 mL of lysed defibrinated horse blood (HB035; TCS Biosciences Ltd, Buckingham, United Kingdom) were also added for every 100 mL needed. Horse blood lysis is achieved by dilution to half concentration with SDW; when fully lysed the mixture will turn dark red in colour.
(§4) 18 mL agar was added to each universal and then poured into sterile Petri dishes. This step creates a 1/10 dilution resulting in agar plates of the required strength. Control plates for each set of strains were created by adding 18 mL of agar to 2 mL of SDW.
(§5) Suspensions of each bacterial species were prepared with a density equal to that of a 0.5 McFarland standard using a densitometer. All suspensions were made using sterile distilled water and fresh 18-20 hour cultures. As a 0.5 McFarland standard contains 1.5×10^8 CFU/mL and the multipoint inoculators applies 1 μL spots of liquid, each bacterial suspension was diluted 1/15 (20 μL suspension to 280 μL sterile distilled water).
(§6) Bacterial suspensions were prepared from fresh 18-24 hour cultures as previously described. 1 μL of each strain was inoculated onto all 100 agar plates containing a different chemical concentration and the 2 control plates. This was done using a multipoint inoculator which inoculates 20 strains per plate. All plates were incubated for 22 hours at 37° C. in aerobic conditions.
(§7) Each plate was examined for bacterial growth after 22 and 48 hours, with each being incubated in between examinations. A positive result was recorded as growth of ≧10 colonies. A negative result was recorded as growth of <10 colonies as this is equivalent to 99.9% inhibition. The lowest concentration of chemical that inhibited growth was recorded as the MIC. The results are recorded in Table IV below, where the numbers are quoted in mmol/L.
(§8) Given the positive performance of the ethoxylates of lauryl alcohol in reducing the MIC for a number of the micro-organisms tested, further MIC testing of Laureth-1 [C12E1] through to Laureth-8 [C12E8] was conducted on each of the following: • 10 strains of vancomycin-resistant enterococci (VRE)—listed in Table V below; and • 20 strains of methicillin-resistant Staphylococcus aureus (MRSA)—listed in Table VI.
(§9) The alkanol, alkanol derivatives, agar plates, and inocula were all prepared in the same way as described above.
(§10) The plates were examined in the same manner as described above and the results are recorded in Table VII below, where the numbers are quoted in mmol/L.

[4] = test system: Enterococcus faecium (VRE) 12185 Clin waste; test: MIC agar dilution, VRE strain 24
Protocol: as §2, §3, §4, §5, §6, §7, §8, §9, §10

[5] = test system: Enterococcus faecalis (VRE) MB 1969; test: MIC agar dilution, VRE strain 27
Protocol: as §2, §3, §4, §5, §6, §7, §8, §9, §10

[6] = test system: MRSA BEL 97597; test: MIC agar dilution, MRSA strain 33; settings: Staphylococcus aureus
Protocol: as §2, §3, §4, §5, §6, §7, §8, §9, §10

[7] = test system: MRSA BEL 97598; test: MIC agar dilution, MRSA strain 34; settings: Staphylococcus aureus
Protocol: as §2, §3, §4, §5, §6, §7, §8, §9, §10

[8] = test system: MRSA GER 131/98 (Sger Iidc); test: MIC agar dilution, MRSA strain 35; settings: Staphylococcus aureus
Protocol: as §2, §3, §4, §5, §6, §7, §8, §9, §10

[9] = test system: MRSA EMRSA 15 21268/98; test: MIC agar dilution, MRSA strain 40; settings: Staphylococcus aureus
Protocol: as §2, §3, §4, §5, §6, §7, §8, §9, §10

[10] = test system: MRSA EMRSA 15 21698/98; test: MIC agar dilution, MRSA strain 41; settings: Staphylococcus aureus
Protocol: as §2, §3, §4, §5, §6, §7, §8, §9, §10

[11] = test system: MRSA EMRSA 15 1729/98; test: MIC agar dilution, MRSA strain 42; settings: Staphylococcus aureus
Protocol: as §2, §3, §4, §5, §6, §7, §8, §9, §10

[12] = test system: MRSA EMRSA 16 00036/95; test: MIC agar dilution, MRSA strain 46; settings: Staphylococcus aureus
Protocol: as §2, §3, §4, §5, §6, §7, §8, §9, §10

[13] = test system: MRSA EMRSA 16 07924/95; test: MIC agar dilution, MRSA strain 49; settings: Staphylococcus aureus
Protocol: as §2, §3, §4, §5, §6, §7, §8, §9, §10

For `CCCCCCCCCCCCOCCOCCOCCOCCO` [L4, Tetraethylene Glycol Monododecyl Ether], the MIC ([1]; 22 h, 22 hrs) was 110 µM (≈ 39.9 µg/mL), the MIC ([1]; 48 h, 48 hrs) was 110 µM (≈ 39.9 µg/mL) and the MIC ([2]; 22 h, 22 hrs) was 110 µM (≈ 39.9 µg/mL). It also gave an MIC ([2]; 48 h, 48 hrs) of 110 µM (≈ 39.9 µg/mL), an MIC ([3]; 22 hrs) of 440 µM (≈ 160 µg/mL) and an MIC ([3]; 48 hrs) of 880 µM (≈ 319 µg/mL). For the same molecule, the MIC ([4]; 22 hrs) was 220 µM (≈ 79.8 µg/mL), the MIC ([4]; 48 hrs) was 440 µM (≈ 160 µg/mL) and the MIC ([5]; 22 hrs) was 220 µM (≈ 79.8 µg/mL). It also gave an MIC ([5]; 48 hrs) of 220 µM (≈ 79.8 µg/mL), an MIC ([6]; 22 hrs) of 55 µM (≈ 19.9 µg/mL) and an MIC ([6]; 48 hrs) of 55 µM (≈ 19.9 µg/mL). The MIC ([7]; 22 hrs) was 110 µM (≈ 39.9 µg/mL), the MIC ([7]; 48 hrs) was 110 µM (≈ 39.9 µg/mL) and the MIC ([8]; 22 hrs) was 110 µM (≈ 39.9 µg/mL). It also gave an MIC ([8]; 48 hrs) of 110 µM (≈ 39.9 µg/mL), an MIC ([9]; 22 hrs) of 55 µM (≈ 19.9 µg/mL) and an MIC ([9]; 48 hrs) of 55 µM (≈ 19.9 µg/mL). The MIC ([10]; 22 hrs) was 55 µM (≈ 19.9 µg/mL), the MIC ([10]; 48 hrs) was 55 µM (≈ 19.9 µg/mL) and the MIC ([11]; 22 hrs) was 55 µM (≈ 19.9 µg/mL). The MIC ([11]; 48 hrs) was 55 µM (≈ 19.9 µg/mL), the MIC ([12]; 22 hrs) was 55 µM (≈ 19.9 µg/mL) and the MIC ([12]; 48 hrs) was 55 µM (≈ 19.9 µg/mL). For the same molecule, the MIC ([13]; 22 hrs) was 55 µM (≈ 19.9 µg/mL) and the MIC ([13]; 48 hrs) was 55 µM (≈ 19.9 µg/mL).
